Results taken from article PMC12189828, “Substitution of Proline Residues by 4-Fluoro-L-Proline Affects the Mechanism of the Proline-Rich Antimicrobial Peptide Api137” (Antibiotics, 2025).
Converted amounts (≈) assume the structure as drawn. Where a SMILES comes first, the peptide text is derived from it. The star is where a group is joined. Orn(α-tetramethylguanidino) = CN(C)C(=N[C@@H](CCCN)C(=O)*)N(C)C

Legend:
E. coli RN31 = assay: Minimum inhibitory concentration (MIC) against E. coli RN31; assay type: cell-based, Escherichia coli; details: E. coli RN31, 33% TSB, 37 °C overnight (~16 h), 7.5 × 10^6 bacteria/mL; two independent experiments with two replicates each (n = 4)
Experimental: Minimum inhibitory concentrations were determined for E. coli RN31 grown in 33% TSB (37 °C, 200 rpm) with a starting OD600 of 0.05. After four hours, the cell count was adjusted to 1.5 × 10^7 bacteria/mL. In a transparent 96-well plate, the peptides were diluted in a two-fold dilution series in 33% TSB over 10 dilution steps, and E. coli was added to obtain a final cell count of 7.5 × 10^6 bacteria/mL and incubated at 37 °C overnight. OD600 was determined using a PARADIGM^TM microplate reader (Beckman Coulter, Salzburg, Austria) before and after cultivation. The MIC was defined as the lowest peptide concentration preventing visible bacterial growth.

[1] = biological target: 70S ribosomes isolated from E. coli BW25113 (Escherichia coli, UniProt P60723+P61175); assay: Fluorescence polarization, competition with cf-Api137 for 70S ribosome binding (Ki); details: crude 70S ribosome extract, fluorescence polarization, 28 °C, 90 min + 90 min; two independent experiments with two replicates each (n = 4); Table 2
Experimental: E. coli BW25113 were cultivated in LB medium and harvested by centrifugation (5000× g, 15 min, 4 °C) at an OD600 of 3–4. Cell pellets were washed in ribosome preparation buffer (20 mmol/L HEPES-KOH, 6 mmol/L MgCl2, 30 mmol/L NH4Cl, pH 7.6, 4 °C), centrifuged (4100× g, 30 min, 4 °C), and resuspended in ribosome preparation buffer (0.5 g/L) containing freshly added 2-mercaptoethanol (4 mmol/L) and lysozyme. Cells were incubated on ice for 30 min and disrupted in six cycles using a FastPrep-24^TM 5G instrument (MP Biomedicals, Eschwege, Germany) with the BigPrep 50 mL setting (40 s, 4.0 m/s), interrupted by one minute of incubation on ice between the cycles. After a centrifugation step (1620× g, 5 min, 4 °C), DNase I (5 U/mL) was added to the supernatant and incubated for 1 h on ice. Cell debris was removed by centrifugation at 16,000× g (30 min, 4 °C) and twice at 32,000× g (60 min, 4 °C). Crude ribosomes were obtained by centrifugation at 165,000× g (17 h, 4 °C). […]
Inhibition constants (Ki) were measured for the 70S ribosome extract using cf-labeled and unlabeled peptides in ribosome preparation buffer. […] Fluorescence polarization was determined on a PARADIGM^TM microplate reader in the top reading position (λex = 485 nm, λem = 535 nm). […] Ki values were calculated as described by Mathias and Jung.

[2] = test system: 50S subunit assembly / 70S ribosome in E. coli RN31; assay: Ribosome profile analysis (RPA), sucrose gradient of E. coli RN31 lysate; assay type: cell-based, Escherichia coli; details: 90 min
eukaryotic cell lines = details: cited from earlier work
mice = details: cited from earlier work

## CC[C@H](C)[C@H](NC(=O)[C@H](Cc1ccc(O)cc1)NC(=O)[C@@H](NC(=O)[C@@H]1CCCN1C(=O)[C@H](CCCNC(=N)N)NC(=O)[C@H](CC(N)=O)NC(=O)[C@H](CC(N)=O)NC(=O)[C@H](CCCN)N=C(N(C)C)N(C)C)C(C)C)C(=O)N1CCC[C@H]1C(=O)N[C@@H](CCCNC(=N)N)C(=O)N1CCC[C@H]1C(=O)N[C@@H](CCCNC(=N)N)C(=O)N1CCC[C@H]1C(=O)N1CCC[C@H]1C(=O)N[C@@H](Cc1c[nH]cn1)C(=O)N1CCC[C@H]1C(=O)N[C@@H](CCCNC(=N)N)C(=O)N[C@@H](CC(C)C)C(=O)O [Api137] ({Orn(α-tetramethylguanidino)}-NNRPVYIPRPRPPHPRL-OH; N-terminus and C-terminus assumed)
E. coli RN31
  MIC: 4 µg/mL (≈ 1.75 µM)
[1]
  Ki: 2.6 ± 0.2 nM
[2]; E. coli RN31, 33% TSB, peptide 8 µg/mL, 5–25% sucrose gradient, n = 2 (Api137 n = 7)
  RPA [pre-50S formation]: yes
[2]; E. coli RN31, peptide 8 µg/mL, sucrose gradient profile
  70S peak (area) relative to untreated control: ~ 50%
Eukaryotic cell lines
  cytotoxicity to eukaryotic cell lines: virtually non-toxic
mice
  tolerability in mice: well tolerated
